# According to patent US20170008888A1 (KYORIN PHARMACEUTICAL CO., LTD., priority 2014, published 2017):
# Columns and labels:
# ERK5 = molecular target: T1, ERK5 (Homo sapiens, UniProt Q13164); assay: Probe-based (AX9989 acyl phosphate ATP probe) kinase profiling in Jurkat lysate: ERK5; type: binding; details: for IC50: calculated from percent inhibition of AX9989 labeling and the screening concentration, Jurkat lysate; for inhibition at 1 µM: screening concentration 1.0 μM, read-out: Kinase inhibition % at indicated screening concentration: ERK5
# T1 construct: screened for activity against several kinases in Jurkat cells; endogenous in cells; host or cells: Jurkat cell lysate
# T1 sequence (Q13164 whole entry): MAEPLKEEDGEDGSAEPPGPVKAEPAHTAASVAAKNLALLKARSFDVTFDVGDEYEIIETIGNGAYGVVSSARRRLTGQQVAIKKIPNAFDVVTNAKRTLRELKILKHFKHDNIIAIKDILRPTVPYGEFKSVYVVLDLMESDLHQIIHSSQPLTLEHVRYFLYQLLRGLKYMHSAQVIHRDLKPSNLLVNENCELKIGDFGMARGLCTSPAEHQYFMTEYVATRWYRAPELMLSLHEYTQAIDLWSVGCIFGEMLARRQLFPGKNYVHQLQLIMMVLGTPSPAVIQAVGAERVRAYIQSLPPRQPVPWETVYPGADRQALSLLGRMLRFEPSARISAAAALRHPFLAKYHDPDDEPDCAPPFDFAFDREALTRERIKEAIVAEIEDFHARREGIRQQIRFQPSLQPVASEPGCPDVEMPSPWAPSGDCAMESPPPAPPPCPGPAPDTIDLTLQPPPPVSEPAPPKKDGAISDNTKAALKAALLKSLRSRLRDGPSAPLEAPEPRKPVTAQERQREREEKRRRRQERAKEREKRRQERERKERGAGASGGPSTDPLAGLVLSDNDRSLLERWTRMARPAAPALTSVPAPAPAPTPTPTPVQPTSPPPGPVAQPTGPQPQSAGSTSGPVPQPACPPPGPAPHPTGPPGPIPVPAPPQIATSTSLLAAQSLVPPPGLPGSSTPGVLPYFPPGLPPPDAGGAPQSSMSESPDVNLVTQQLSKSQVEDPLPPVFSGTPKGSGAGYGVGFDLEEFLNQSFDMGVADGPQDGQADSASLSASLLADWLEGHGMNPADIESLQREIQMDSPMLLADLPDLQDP
# Procedure, shortened: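 Gel-filtered Jurkat lysate (5 mg/ml, 20 mM MnCl2) preincubated 15 min at room temperature with compound, then labelled with 5 μM AX9989 acyl phosphate ATP probe. Probe-labelled ERK5 active-site peptides quantified by LC/MS after trypsin digestion and streptavidin capture; IC50 calculated from percent inhibition at the screening concentration.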
# [1] = molecular target: T2, BRD4 bromodomain domain I [BRD4(1)] (Homo sapiens, UniProt O60885); assay: BRD4 bromodomain domain 1 inhibition assay (TR-FRET); type: binding; details: for inhibition at 10 µM: screening concentration 10 μM
# T2 construct: BRD4 bromodomain domain I [BRD4(1)]; purchased Cayman Chemicals
# Method: The inhibitory activity of test compounds on the bromodomain, BRD4 bromodomain domain I [BRD4(1)], were determined via TR-FRET after a slight modification of the manufacturer's protocol (Cayman Chemicals, Ann Arbor, Mich.). Briefly, compounds were diluted to a 20× ([…]) concentration in DMSO. 100 nL of 20× compounds were then dry stamped into triplicate wells of black, low volume 384 well plates (Aurora Biotechnologies, Carlsbad, Calif.) using the Mosquito liquid handler (TPP Labtech, Melbourn, UK). 20× compounds were then diluted to a 4× (40 μM) concentration in Assay Buffer to result in 2% DMSO content. […] JQ1 at 10 μM or 0.5% DMSO final concentrations were used as the positive and negative controls, respectively, to set the assay window. The fluorescence was read in a time-resolved format on the Biotec Synergy 2 plate reader by exciting the signal at 340 nm and reading emissions at 620 and 670, using a 100 μs delay and 200 μs read window. […] Briefly, TR-FRET ratio values were normalized to the average TR-FRET ratio value given by 10 μM JQ1. […]
# human PBMCs = assay: Human PBMC TNF-α response to endotoxin (ELISA); type: cell-based; details: 0.1 μg/ml LPS 16 h, read-out: EC50 for the inhibition of the human PBMC TNF-α response to endotoxin, ave. ± S.D.
# Procedure, shortened: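 PBMCs at 2e6 cells/ml in RPMI 1640 with 10% charcoal-dextran-treated FBS were pre-treated 1 h at 37 °C with compound (4-point 1:5 dilution from 10 μM). Stimulation with 0.1 μg/ml E. coli 0111:B4 LPS for 16 h; TNF-α measured by ELISA (A450) in 25-fold diluted supernatant.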
IC50 (ERK5) [nM],inhibition at 1 µM (ERK5) [%],inhibition at 10 µM [1] [%],IC50 [1] [nM],Compound,EC50 (human PBMCs) [nM]
101 to 500,75 to 90,70 to 85,,CCOc1cc(C(=O)NCCN(C)C)ccc1Nc1cc2c(cn1)N(C)C(=O)c1ccccc1N2C [Compound 1],
> 500,≤ 35,< 70,,CCOc1cc(C(=O)NC2CC2)ccc1Nc1cc2c(cn1)N(C)C(=O)c1ccccc1N2C [Compound 2],
,,> 85,,CCOc1cc(C(=O)N2CC[C@H](NC3CCN(C)CC3)C2)ccc1Nc1cc2c(cn1)N(C)C(=O)c1ccccc1N2C [Compound T61],420
,,,> 5000,CN1C(=O)c2ccccc2S(=O)(=O)c2cc(N[C@H]3CC[C@H](O)CC3)ncc21 [Compound T127],4600
